Test [1] concerns the target T1, complement C5a receptor 1 (C5aR1) (Homo sapiens, UniProt P21730).
T1 construct: β-galactosidase fragment (PathHunter enzyme complementation); host or cells: CHO-K1 (PathHunter CHO-K1 C5aR1 β-arrestin cell line)
T1 sequence (P21730 1-350): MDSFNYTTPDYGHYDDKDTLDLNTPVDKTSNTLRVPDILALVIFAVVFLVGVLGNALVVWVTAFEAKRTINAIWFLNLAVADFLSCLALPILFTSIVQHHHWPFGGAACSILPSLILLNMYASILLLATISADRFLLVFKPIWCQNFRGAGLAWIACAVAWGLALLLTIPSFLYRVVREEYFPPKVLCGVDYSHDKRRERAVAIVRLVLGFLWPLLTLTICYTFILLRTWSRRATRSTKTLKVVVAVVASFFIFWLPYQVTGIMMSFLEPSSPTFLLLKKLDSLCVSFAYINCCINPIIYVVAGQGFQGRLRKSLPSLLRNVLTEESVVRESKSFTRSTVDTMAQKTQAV
Nature of the test: β-arrestin recruitment via C5aR1 activation in live CHO-K1 cells (PathHunter), antagonist mode. The test is classed as cell-based. Particulars: antagonist mode; recombinant hC5a (EC90) as competing natural agonist; live CHO-K1 cells; read-out: [Antagonist] B-arrestin2 recruitment: Average IC50; call rule not given here. The method in brief: (§1)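 Live CHO-K1 cells expressing β-galactosidase fragments fused to β-arrestin and C5aR1; recruitment is read by fragment complementation. In agonist mode compounds are tested alone; in antagonist mode they compete against recombinant hC5a at EC90. IC50 reported in binned ranges.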
(In general: Activated receptors often draw arrestin, which recruitment assays turn into a signal.)

For test [2], the target named is T1, complement C5a receptor 1 (C5aR1). Briefly: β-arrestin recruitment via C5aR1 activation in live CHO-K1 cells (PathHunter), agonist mode. Format: cell-based. The method, boiled down:
as §1

This note sets out measurements from patent publication US20260317320A1, “C5AR1 ANTAGONISTS AND USES THEREOF” (Vanqua Bio, Inc., priority 2022, published 2026).

Broadly, the IC50 is the concentration at which inhibition is half-maximal.

Structures are written as SMILES. Like-named read-outs stand apart in the source and are kept apart here. Bounds are passed on as bounds.

As for `Cc1cnc2cc([C@H]3CC[C@@H](c4c(C)ccnc4F)CC3)c(=O)n(Cc3ncccc3C(F)(F)F)c2n1` [147A, 7-((1s,4s)-4-(2-Fluoro-4-methylpyridin-3-yl)cyclohexyl)-3-methyl-5-((3-(trifluoromethyl)pyridin-2-yl)methyl)pyrido[2,3-b]pyrazin-6(5H)-one], the half-inhibitory concentration (IC50) in test [1] was under 0.5 µM. In addition, in test [2] (at 10 μM), the “[Agonist] B-arrestin2 recruitment: Average EC50 (nM)” value (“[Agonist] B-arrestin2 recruitment” below) is “Non-Active at 10 μM”.

`Cc1cccc(F)c1N1CCC(c2cc3nccnc3n(Cc3cccnc3C(F)(F)F)c2=O)CC1` [compound 13, 7-(1-(2-Fluoro-6-methylphenyl)piperidin-4-yl)-5-((2-(trifluoromethyl)pyridin-3-yl)methyl)pyrido[2,3-b]pyrazin-6(5H)-one]: the 50% inhibitory concentration (IC50) in test [1] is under 0.5 µM. For the same molecule, in test [2], the “[Agonist] B-arrestin2 recruitment” value is recorded as “Non-Active”.

In the case of `Cc1cnc2cc([C@@H]3CC[C@H](c4c(C)cccc4F)C3)c(=O)n(Cc3nccnc3C(F)(F)F)c2n1` [197C, 7-((1R,3S)-3-(2-Fluoro-6-methylphenyl)cyclopentyl)-3-methyl-5-((3-(trifluoromethyl)pyrazin-2-yl)methyl)pyrido[2,3-b]pyrazin-6(5H)-one], in test [1], the 50% inhibitory concentration (IC50) was 5 to 100 µM. Also, in test [2] (at 10 μM), the “[Agonist] B-arrestin2 recruitment” value is on record as “Non-Active at 10 μM”.

`O=c1c(C2CCN(c3ccccc3C(F)(F)F)CC2)cc2nccnc2n1Cc1ccccc1F` [compound 10, 5-(2-fluorobenzyl)-7-(1-(2-(trifluoromethyl)phenyl)piperidin-4-yl)pyrido[2,3-b]pyrazin-6(5H)-one]: in test [1], the IC50 was under 0.5 µM. Further, the “[Agonist] B-arrestin2 recruitment” value in test [2] is on record as “Non-Active”.

For the molecule `Cc1cnc2cc([C@@H]3CC[C@@H](c4c(C)cccc4F)C3)c(=O)n(Cc3ncccc3OC(F)F)c2n1` [175D, 5-((3-(Difluoromethoxy)pyridin-2-yl)methyl)-7-((1R,3R)-3-(2-fluoro-6-methylphenyl)cyclopentyl)-3-methylpyrido[2,3-b]pyrazin-6(5H)-one], the IC50 in test [1] is 0.5 to 5 µM. In test [2] (at 10 μM), the “[Agonist] B-arrestin2 recruitment” value is “Non-Active at 10 μM”.

As to `Cc1cccc(F)c1N1CCC(c2c(C)c3nccnc3n(Cc3nccnc3OCC(F)(F)F)c2=O)CC1` [compound 4, 7-(1-(2-Fluoro-6-methylphenyl)piperidin-4-yl)-8-methyl-5-((3-(2,2,2-trifluoroethoxy)pyrazin-2-yl)methyl)pyrido[2,3-b]pyrazin-6(5H)-one], the IC50 in test [1] lay within 0.5 to 5 µM. The “[Agonist] B-arrestin2 recruitment” value in test [2] was “Non-Active”.

`Cc1cccc(F)c1C1CCN(c2cc3nccnc3n(Cc3nccnc3C(F)(F)F)c2=O)CC1` [compound 89, 7-(4-(2-Fluoro-6-methylphenyl)piperidin-1-yl)-5-((3-(trifluoromethyl)pyrazin-2-yl)methyl) pyrido[2,3-b]pyrazin-6(5H)-one]: in test [1], the IC50 fell in the range of 5 to 100 µM. Also, in test [2], the “[Agonist] B-arrestin2 recruitment” value is given as “Non-Active”.

`Cc1ccnc(F)c1N1CCC(c2cc3nccnc3n(Cc3nccnc3C(F)(F)F)c2=O)CC1` [compound 129, 7-(1-(2-Fluoro-4-methylpyridin-3-yl)piperidin-4-yl)-5-((3-(trifluoromethyl)pyrazin-2-yl)methyl)pyrido[2,3-b]pyrazin-6(5H)-one]: in test [1], the IC50 was under 0.5 µM. In addition, the “[Agonist] B-arrestin2 recruitment” value in test [2] is “Non-Active”.

On to `Cc1cnc2cc(C3CCN(c4nn(C)c5ccccc45)CC3)c(=O)n(Cc3ncccc3C(F)(F)F)c2n1` [compound 186, 3-Methyl-7-(1-(1-methyl-1H-indazol-3-yl)piperidin-4-yl)-5-((3-(trifluoromethyl)pyridin-2-yl)methyl)pyrido[2,3-b]pyrazin-6(5H)-one], for which the IC50 in test [1] is 5 to 100 µM. For the same molecule, the “[Agonist] B-arrestin2 recruitment” value in test [2] (at 10 μM) is listed as “Non-Active at 10 μM”.

For `Cc1cnc2c(C)c(C3CCN(c4c(C)ccnc4F)CC3)c(=O)n(Cc3nccnc3C(F)(F)F)c2n1` [compound 63, 7-(1-(2-Fluoro-4-methylpyridin-3-yl)piperidin-4-yl)-3,8-dimethyl-5-((3-(trifluoromethyl)pyrazin-2-yl)methyl)pyrido[2,3-b]pyrazin-6(5H)-one], the IC50 in test [1] lay in the range of 0.5 to 5 µM. The “[Agonist] B-arrestin2 recruitment” value in test [2] was “Non-Active”.

Take `Cc1ccc2c(c1)nc(C1CCN(c3c(C)cccc3F)CC1)c(=O)n2Cc1nccnc1C(F)(F)F` [144B, 3-(1-(2-Fluoro-6-methylphenyl)piperidin-4-yl)-6-methyl-1-((3-(trifluoromethyl)pyrazin-2-yl)methyl)quinoxalin-2(1H)-one]: the 50% inhibitory concentration (IC50) in test [1] is over 100 µM. For the same molecule, the “[Agonist] B-arrestin2 recruitment” value in test [2] (at 10 μM) is “Non-Active at 10 μM”.

As to `Cc1cnc2cc(C3CCN(c4ccc5c(cnn5C)c4)CC3)c(=O)n(Cc3ncccc3C(F)(F)F)c2n1` [compound 181, 3-Methyl-7-(1-(1-methyl-1H-indazol-5-yl)piperidin-4-yl)-5-((3-(trifluoromethyl)pyridin-2-yl)methyl)pyrido[2,3-b]pyrazin-6(5H)-one], in test [1], the IC50 lay in the range of 5 to 100 µM. Also, the “[Agonist] B-arrestin2 recruitment” value in test [2] (at 10 μM) is on record as “Non-Active at 10 μM”.

`Cc1ncc2cc([C@H]3CC[C@H](c4c(C)cccc4F)CC3)c(=O)n(Cc3ncccc3OC(F)(F)F)c2n1` [compound 198, 6-((1r,4r)-4-(2-Fluoro-6-methylphenyl)cyclohexyl)-2-methyl-8-((3-(trifluoromethoxy)pyridin-2-yl)methyl)pyrido[2,3-d]pyrimidin-7(8H)-one]: the IC50 in test [1] was under 0.5 µM. For the same molecule, the “[Agonist] B-arrestin2 recruitment” value in test [2] is given as “Non-Active”.

For `Cc1cnc2cc(N3CCN(c4c(C)cccc4F)CC3)c(=O)n(Cc3ncccc3OC(F)(F)F)c2n1` [compound 124, 7-(4-(2-Fluoro-6-methylphenyl)piperazin-1-yl)-3-methyl-5-((3-(trifluoromethoxy)pyridin-2-yl)methyl)pyrido[2,3-b]pyrazin-6(5H)-one], in test [1], the IC50 is under 0.5 µM. Also, the “[Agonist] B-arrestin2 recruitment” value in test [2] is on record as “Non-Active”.

As for `O=c1c(C2CCN(c3cccnc3C(F)(F)F)CC2)cc2nccnc2n1Cc1ccccc1F` [compound 18, 5-(2-Fluorobenzyl)-7-(1-(2-(trifluoromethyl)pyridin-3-yl)piperidin-4-yl)pyrido[2,3-b]pyrazin-6(5H)-one], the IC50 in test [1] is over 100 µM. The “[Agonist] B-arrestin2 recruitment” value in test [2] is “Non-Active”.

Regarding `Cc1cnc2cc(C3CCN(c4c(C)cccc4F)CC3)c(=O)n([C@H]3CCC(F)(F)c4nccnc43)c2n1` [149B, (S)-5-(8,8-Difluoro-5,6,7,8-tetrahydroquinoxalin-5-yl)-7-(1-(2-fluoro-6-methylphenyl)piperidin-4-yl)-3-methylpyrido[2,3-b]pyrazin-6(5H)-one], the half-inhibitory concentration (IC50) in test [1] is under 0.5 µM. For the same molecule, in test [2], the “[Agonist] B-arrestin2 recruitment” value is listed as “Non-Active”.

As for `Cc1cccc(F)c1N1CCN(c2c(C)c3nccnc3n(Cc3ncccc3C(F)(F)F)c2=O)CC1` [compound 88, 7-(4-(2-Fluoro-6-methylphenyl)piperazin-1-yl)-8-methyl-5-((3-(trifluoromethyl)pyridin-2-yl)methyl)pyrido[2,3-b]pyrazin-6(5H)-one], the IC50 in test [1] was under 0.5 µM. Also, the “[Agonist] B-arrestin2 recruitment” value in test [2] was “Non-Active”.
